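Method: 48-hour compound exposure of cells in 96-well plates, five concentrations, linear interpolation of endpoints. At the TGI there is no net growth.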
Assays:
Assay in all cases: NCI tumour cell line growth inhibition, 48 h
[1] = test system: MDA-MB-435
[2] = test system: SK-MEL-28 melanoma
[3] = test system: UO-31 renal
[4] = test system: MDA-N
[5] = test system: SF-268 CNS
[6] = test system: HCC-2998 colon
[7] = test system: NCI-H460 lung
[8] = test system: A498 renal
[9] = test system: CAKI-1 renal
[10] = test system: SR leukemia
[11] = test system: KM12 colon
[12] = test system: TK-10 renal
[13] = test system: RPMI-8226 leukemia
[14] = test system: OVCAR-8 ovarian
[15] = test system: UACC-62 melanoma
[16] = test system: U251 CNS
[17] = test system: LOX IMVI melanoma
[18] = test system: SNB-75 CNS
[19] = test system: SK-MEL-5 melanoma
[20] = test system: IGROV1 ovarian
[21] = test system: RXF 393 renal
[22] = test system: M14 melanoma
[23] = test system: BT-549 breast
[24] = test system: T-47D breast
[25] = test system: OVCAR-3 ovarian
[26] = test system: PC-3 prostate
[27] = test system: A549 NSCLC
[28] = test system: OVCAR-5 ovarian
[29] = test system: HOP-62 NSCLC
[30] = test system: MCF7 breast
[31] = test system: SF-295 CNS
[32] = test system: HL-60(TB) leukemia
[33] = test system: SNB-19 CNS
[34] = test system: HOP-92 NSCLC
[35] = test system: NCI/ADR-RES ovarian
[36] = test system: SF-539 CNS
[37] = test system: CCRF-CEM leukemia
[38] = test system: ACHN renal
[39] = test system: DU-145 prostate
[40] = test system: UACC-257 melanoma
[41] = test system: OVCAR-4 ovarian
[42] = test system: 786-0 renal
[43] = test system: HCT-116 colon
[44] = test system: EKVX NSCLC
[45] = test system: SN12C renal
[46] = test system: MDA-MB-231 breast
[47] = test system: HCT-15 colon
[48] = test system: NCI-H226 lung
[49] = test system: HS 578T breast
[50] = test system: NCI-H23 lung
[51] = test system: MOLT-4 leukemia
[52] = test system: NCI-H522 lung
[53] = test system: SK-MEL-2 melanoma
[54] = test system: K-562 leukemia
[55] = test system: MALME-3M melanoma
[56] = test system: SK-OV-3 ovarian
[57] = test system: SW-620 colon
[58] = test system: COLO 205 colon
[59] = test system: HT29 colon

## COc1cccc2c(=O)c3c(n(C)c12)OC(C(C)C)C3 (stereo not drawn)
[1]
  TGI: > 100 µM
[2]
  TGI: > 100 µM
[3]
  TGI: > 100 µM
[4]
  TGI: > 100 µM
[5]
  TGI: > 100 µM
[6]
  TGI: > 100 µM
[7]
  TGI: > 100 µM
[8]
  TGI: > 100 µM
[9]
  TGI: > 100 µM
[10]
  TGI: > 100 µM
[11]
  TGI: > 100 µM
[12]
  TGI: > 100 µM
[13]
  TGI: > 100 µM
[14]
  TGI: > 100 µM
[15]
  TGI: > 100 µM
[16]
  TGI: > 100 µM
[17]
  TGI: > 100 µM
[18]
  TGI: > 100 µM
[19]
  TGI: > 100 µM
[20]
  TGI: > 100 µM
[21]
  TGI: > 100 µM
[22]
  TGI: > 100 µM
[23]
  TGI: > 100 µM
[24]
  TGI: > 100 µM
[25]
  TGI: > 100 µM
[26]
  TGI: > 100 µM
[27]
  TGI: > 100 µM
[28]
  TGI: > 100 µM
[29]
  TGI: > 100 µM
[30]
  TGI: > 100 µM
[31]
  TGI: > 100 µM
[32]
  TGI: > 100 µM
[33]
  TGI: > 100 µM
[34]
  TGI: > 100 µM
[35]
  TGI: > 100 µM
[36]
  TGI: > 100 µM
[37]
  TGI: > 100 µM
[38]
  TGI: > 100 µM
[39]
  TGI: > 100 µM
[40]
  TGI: > 100 µM
[41]
  TGI: 89.2 µM
[42]
  TGI: > 100 µM
[43]
  TGI: > 100 µM
[44]
  TGI: > 100 µM
[45]
  TGI: > 100 µM
[46]
  TGI: > 100 µM
[47]
  TGI: > 100 µM
[48]
  TGI: > 100 µM
[49]
  TGI: > 100 µM
[50]
  TGI: > 100 µM
[51]
  TGI: > 100 µM
[52]
  TGI: > 100 µM
[53]
  TGI: > 100 µM
[54]
  TGI: 86.2 µM
[55]
  TGI: > 100 µM
[56]
  TGI: > 100 µM
[57]
  TGI: > 100 µM
[58]
  TGI: > 100 µM
[59]
  TGI: > 100 µM

## COc1ccc(C(CC(C)=O)c2c(O)c3ccccc3oc2=O)cc1OC (stereo not drawn)
[1]
  TGI: > 100 µM
[2]
  TGI: > 100 µM
[3]
  TGI: > 100 µM
[4]
  TGI: > 100 µM
[5]
  TGI: > 100 µM
[6]
  TGI: > 100 µM
[7]
  TGI: > 100 µM
[8]
  TGI: > 100 µM
[9]
  TGI: > 100 µM
[10]
  TGI: > 100 µM
[11]
  TGI: > 100 µM
[12]
  TGI: > 100 µM
[13]
  TGI: > 100 µM
[14]
  TGI: > 100 µM
[15]
  TGI: > 100 µM
[16]
  TGI: > 100 µM
[17]
  TGI: > 100 µM
[18]
  TGI: > 100 µM
[19]
  TGI: > 100 µM
[20]
  TGI: > 100 µM
[21]
  TGI: > 100 µM
[22]
  TGI: > 100 µM
[23]
  TGI: > 100 µM
[24]
  TGI: > 100 µM
[25]
  TGI: > 100 µM
[26]
  TGI: > 100 µM
[27]
  TGI: > 100 µM
[28]
  TGI: > 100 µM
[29]
  TGI: > 100 µM
[30]
  TGI: > 100 µM
[31]
  TGI: > 100 µM
[32]
  TGI: > 100 µM
[33]
  TGI: > 100 µM
[34]
  TGI: > 100 µM
[35]
  TGI: > 100 µM
[36]
  TGI: > 100 µM
[37]
  TGI: > 100 µM
[38]
  TGI: > 100 µM
[39]
  TGI: > 100 µM
[40]
  TGI: > 100 µM
[41]
  TGI: > 100 µM
[42]
  TGI: > 100 µM
[43]
  TGI: > 100 µM
[44]
  TGI: > 100 µM
[45]
  TGI: > 100 µM
[46]
  TGI: > 100 µM
[47]
  TGI: > 100 µM
[48]
  TGI: > 100 µM
[49]
  TGI: > 100 µM
[50]
  TGI: > 100 µM
[51]
  TGI: > 100 µM
[52]
  TGI: > 100 µM
[53]
  TGI: > 100 µM
[54]
  TGI: > 100 µM
[55]
  TGI: > 100 µM
[56]
  TGI: > 100 µM
[57]
  TGI: > 100 µM
[58]
  TGI: > 100 µM
[59]
  TGI: > 100 µM
